Measured values reported in patent publication US20060264419A1 (priority 2003, published 2006).

Target: 5-HT2A receptors (Rattus norvegicus, UniProt P14842)
Assay: in-vitro affinity to 5-HT2A receptors, displacement of [3H]ketanserine (Example A1)
Format: binding
Conditions: target not given; description names affinity to 5-HT2A receptors; read-out: IC50
Text: The 5-HT2A receptors are exposed both to [^3H]ketanserine (a substance which is known for its affinity to the receptor) and also to the test compound. The decrease in the affinity of [^3H]ketanserine to the receptor is an indication of the affinity of the test substance to the 5-HT2A receptor.

Sequence of 5-HT2A receptors (P14842 whole entry): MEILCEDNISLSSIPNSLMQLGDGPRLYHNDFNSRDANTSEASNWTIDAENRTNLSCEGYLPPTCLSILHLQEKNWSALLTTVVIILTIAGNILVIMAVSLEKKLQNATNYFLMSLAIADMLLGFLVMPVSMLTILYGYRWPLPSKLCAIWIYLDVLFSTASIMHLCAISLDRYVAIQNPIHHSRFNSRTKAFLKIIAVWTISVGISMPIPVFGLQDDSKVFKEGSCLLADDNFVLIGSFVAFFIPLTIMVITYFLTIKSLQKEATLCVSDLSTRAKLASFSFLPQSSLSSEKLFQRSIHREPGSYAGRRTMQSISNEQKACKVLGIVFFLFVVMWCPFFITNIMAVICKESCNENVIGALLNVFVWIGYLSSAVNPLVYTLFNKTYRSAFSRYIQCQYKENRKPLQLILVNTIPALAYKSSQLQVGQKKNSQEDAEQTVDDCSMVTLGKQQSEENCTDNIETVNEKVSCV

| SMILES | IC50 [nM] |
| --- | --- |
| CN1CCN(Cc2cnn(-c3ccc(-n4cccc4)cc3)c2-c2ccccc2F)CC1 [(106), 1-[5-(2-Fluorophenyl)-1-(4-pyrrol-1-ylphenyl)-1H-pyrazol-4-ylmethyl]-4-methylpiperazine] | 17 |
| Fc1ccccc1-c1c(CNC2CN3CCC2CC3)cnn1-c1ccc(-c2ccccc2)cc1 (stereo not drawn) [(107), (1-Azabicyclo[2.2.2]oct-3-yl)-[1-biphenyl-4-yl-5-(2-fluorophenyl)-1H-pyrazol-4-ylmethyl]amine] | 140 |
| O=S1(=O)CCN(Cc2cnn(-c3ccc(-c4ccccc4)cc3)c2-c2ccccc2F)CC1 [(108), 4-[1-Biphenyl-4-yl-5-(2-fluorophenyl)-1H-pyrazol-4-ylmethyl]-thiomorpholine 1,1-dioxide] | 43 |
| CN1CC2CC1CN2Cc1cnn(-c2ccc(-c3ccccc3)cc2)c1-c1ccccc1F (stereo not drawn) [(109), 2-[1-Biphenyl-4-yl-5-(2-fluorophenyl)-1H-pyrazol-4-ylmethyl]-5-methyl-2,5-diazabicyclo[2.2.1]heptane] | 94 |
| CCOC(=O)N1CCC(N(C)Cc2cnn(-c3ccc(-c4ccccc4)cc3)c2-c2ccccc2F)CC1 [(110), Ethyl 4-{[1-biphenyl-4-yl-5-(2-fluorophenyl)-1H-pyrazol-4-ylmethyl]methylamino}piperidine-1-carboxylate] | 170 |
| NC(=O)CN1CCN(Cc2cnn(-c3ccc(-c4ccccc4)cc3)c2-c2ccccc2F)CC1 [(111), 2-{4-[1-Biphenyl-4-yl-5-(2-fluorophenyl)-1H-pyrazol-4-ylmethyl]piperazin-1-yl}acetamide] | 360 |
| COC(=O)CCNCc1cnn(-c2ccc(-c3ccccc3)cc2)c1-c1ccccc1F [(112), Methyl 3-{[1-biphenyl-4-yl-5-(2-fluorophenyl)-1H-pyrazol-4-ylmethyl]amino}propionate] | 210 |
| CN1CCN(Cc2cnn(-c3ccc(-c4ccccc4)cc3)c2-c2cccnc2)CC1 [(113), 1-(1-Biphenyl-4-yl-5-pyridin-3-yl-1H-pyrazol-4-ylmethyl)-4-methylpiperazine] | 290 |
| CC(C)c1ccc(-n2ncc(CN3CCN(C)CC3)c2-c2ccccc2F)cc1 [(114), 1-[5-(2-Fluorophenyl)-1-(4-isopropylphenyl)-1H-pyrazol-4-ylmethyl]-4-methylpiperazine] | 120 |
| CN1CCN(Cc2cnn(-c3ccc(OC(F)(F)F)cc3)c2-c2ccccc2F)CC1 [(115), 1-[5-(2-Fluorophenyl)-1-(4-trifluoromethoxyphenyl)-1H-pyrazol-4-ylmethyl]-4-methylpiperazine] | 270 |
| CN1CCN(Cc2cnn(-c3ccc(-c4ccc(F)cc4)nc3)c2-c2ccccc2F)CC1 [(116), 1-{5-(2-Fluorophenyl)-1-[6-(4-fluorophenyl)pyridin-3-yl]-1H-pyrazol-4-ylmethyl}-4-methylpiperazine] | 120 |
| CCOC(=O)CNCc1cnn(-c2ccc(-c3ccccc3)cc2)c1-c1cccnc1 [(117), Ethyl [(1-biphenyl-4-yl-5-pyridin-3-yl-1H-pyrazol-4-ylmethyl)-amino]acetate] | 940 |
| NC(=O)CNCc1cnn(-c2ccc(-c3ccccc3)cc2)c1-c1ccccc1F [(118), 2-{[1-Biphenyl-4-yl-5-(2-fluorophenyl)-1H-pyrazol-4-ylmethyl]-amino}acetamide] | 730 |
| OCc1cnn(-c2ccc(-c3ccc(F)cc3)nc2)c1-c1ccccc1F [(119), {5-(2-Fluorophenyl)-1-[6-(4-fluorophenyl)pyridin-3-yl]-1H-pyrazol-4-yl}methanol] | 300 |
| CN1CCN(Cc2cnn(-c3ccc(-c4cccnc4)cc3)c2-c2ccccc2F)CC1 [(120), 1-[5-(2-Fluorophenyl)-1-(4-pyridin-3-ylphenyl)-1H-pyrazol-4-ylmethyl]-4-methylpiperazine] | 170 |
| CN1CCN(Cc2cnn(-c3ccc(-c4ccncc4)cc3)c2-c2ccccc2F)CC1 [(121), 1-[5-(2-Fluorophenyl)-1-(4-pyridin-4-ylphenyl)-1H-pyrazol-4-ylmethyl]-4-methylpiperazine] | 77 |
| Fc1ccc(F)c(-c2ccc(-n3ncc(CNCC4CCCO4)c3-c3ccccc3F)cc2)c1 (stereo not drawn) [(122), [1-(2′,5′-Difluorobiphenyl-4-yl)-5-(2-fluorophenyl)-1H-pyrazol-4-ylmethyl](tetrahydrofuran-2-ylmethyl)amine] | 370 |
| CS(=O)(=O)N1CCN(Cc2cnn(-c3ccc(-c4ccccc4)cc3)c2-c2ccccc2F)CC1 [(123), 1-[1-Biphenyl-4-yl-5-(2-fluorophenyl)-1H-pyrazol-4-ylmethyl]-4-methanesulfonylpiperazine] | 830 |
| N#CCNCc1cnn(-c2ccc(-c3ccccc3)cc2)c1-c1ccccc1F [(124), {[1-Biphenyl-4-yl-5-(2-fluorophenyl)-1H-pyrazol-4-ylmethyl]-amino}acetonitrile] | 280 |
| O=C(Nc1ccccc1)N1CCN(Cc2cnn(-c3ccc(-c4ccccc4)cc3)c2-c2ccccc2F)CC1 [(126), N-Phenyl-4-[1-biphenyl-4-yl-5-(2-fluorophenyl)-1H-pyrazol-4-ylmethyl]piperazine-1-carboxamide] | 790 |

| SMILES | IC50 [nM] |
| --- | --- |
| CN(C)CCN(C)Cc1cnn(-c2ccc(-c3ccccc3)nc2)c1-c1ccccc1F [(127), N-[5-(2-Fluorophenyl)-1-(6-phenylpyridin-3-yl)-1H-pyrazol-4-ylmethyl]-N,N′,N′-trimethylethane-1,2-diamine] | 440 |
| CN(C)C(=O)CNCc1cnn(-c2ccc(-c3ccccc3)cc2)c1-c1ccccc1F [(128), 2-{[1-Biphenyl-4-yl-5-(2-fluorophenyl)-1H-pyrazol-4-ylmethyl]-amino}-N,N-dimethylacetamide] | 200 |
| O=C(CNCc1cnn(-c2ccc(-c3ccccc3)cc2)c1-c1ccccc1F)Nc1ccc([N+](=O)[O-])cc1 [(129), 2-{[1-Biphenyl-4-yl-5-(2-fluorophenyl)-1H-pyrazol-4-ylmethyl]-amino}-N-(4-nitrophenyl)acetamide] | 100 |
| CNC(=O)CNCc1cnn(-c2ccc(-c3ccccc3)cc2)c1-c1ccccc1F [(130), 2-{[1-Biphenyl-4-yl-5-(2-fluorophenyl)-1H-pyrazol-4-ylmethyl]-amino}-N-methylacetamide] | 600 |
| O=C1NOCC1NCc1cnn(-c2ccc(-c3ccccc3)cc2)c1-c1ccccc1F (stereo not drawn) [(131), 4-{[1-Biphenyl-4-yl-5-(2-fluorophenyl)-1H-pyrazol-4-ylmethyl]-amino}isoxazolidin-3-one] | 6000 |
| CN(CC(N)=O)Cc1cnn(-c2ccc(-c3ccccc3)cc2)c1-c1ccccc1F [(132), 2-{[1-Biphenyl-4-yl-5-(2-fluorophenyl)-1H-pyrazol-4-ylmethyl]-methylamino}acetamide] | 920 |
| Fc1ccccc1-c1c(CNCc2nc3ccccc3[nH]2)cnn1-c1ccc(-c2ccccc2)cc1 [(133), (1H-Benzoimidazol-2-ylmethyl)-[1-biphenyl-4-yl-5-(2-fluorophenyl)-1H-pyrazol-4-ylmethyl]amine] | 76 |
| COCCN(C)Cc1cnn(-c2ccc(-c3ccccc3)nc2)c1-c1ccccc1F [(134), [5-(2-Fluorophenyl)-1-(6-phenylpyridin-3-yl)-1H-pyrazol-4-ylmethyl]-(2-methoxyethyl)methylamine] | 300 |
| Fc1ccccc1-c1c(CN2CCN(Cc3ccsc3)CC2)cnn1-c1ccc(-c2ccccc2)cc1 [(135), 1-[1-Biphenyl-4-yl-5-(2-florophenyl)-1H-pyrazol-4-ylmethyl]-4-thiophen-3-ylmethylpiperazine] | 380 |
| N#CC(NCc1cnn(-c2ccc(-c3ccccc3)cc2)c1-c1ccccc1F)C(N)=O (stereo not drawn) [(136), 2-{[1-Biphenyl-4-yl-5-(2-fluorophenyl)-1H-pyrazol-4-ylmethyl]-amino}-2-cyanoacetamide] | 130 |
| OCC(Cc1cnc[nH]1)NCc1cnn(-c2ccc(-c3ccccc3)cc2)c1-c1ccccc1F (stereo not drawn) [(137), 2-{[1-Biphenyl-4-yl-5-(2-fluorophenyl)-1H-pyrazol-4-ylmethyl]-amino}-3-(3H-imidazol-4-yl)propan-1-ol] | 370 |
| Fc1ccccc1-c1c(CNc2ccon2)cnn1-c1ccc(-c2ccccc2)cc1 [(138), [1-Biphenyl-4-yl-5-(2-fluorophenyl)-1H-pyrazol-4-ylmethyl]-isoxazol-3-ylamine] | 240 |
| CCNC(=O)CN1CCN(Cc2cnn(-c3ccc(-c4ccccc4)cc3)c2-c2ccccc2F)CC1 [(139), 2-{4-[1-Biphenyl-4-yl-5-(2-fluorophenyl)-1H-pyrazol-4-ylmethyl]piperazin-1-yl}-N-ethylacetamide] | 230 |
| Fc1ccc(F)c(-c2ccc(-n3ncc(CNc4cc[nH]n4)c3-c3ccccc3F)cc2)c1 [(140), [1-(2′,5′-Difluorobiphenyl-4-yl)-5-(2-fluorophenyl)-1H-pyrazol-4-ylmethyl]-(1H-pyrazol-3-yl)amine] | 180 |
| CN(C)CCN(C)Cc1cnn(-c2ccc(-c3ccc(F)cc3)nc2)c1-c1ccccc1F [(141), N-{5-(2-fluorophenyl)-1-[6-(4-fluorophenyl)pyridin-3-yl]-1H-pyrazol-4-ylmethyl}-N,N′,N′-trimethylethane-1,2-diamine] | 140 |
| Fc1ccc(-c2ccc(-n3ncc(CN4CCCC4)c3-c3ccccc3F)cn2)cc1 [(142), 2-(4-Fluorophenyl)-5-[5-(2-fluorophenyl)-4-pyrrolidin-1-ylmethylpyrazol-1-yl]pyridine] | 75 |
| CN1CCC(N(C)Cc2cnn(-c3ccc(-c4ccc(F)cc4)nc3)c2-c2ccccc2F)CC1 [(143), {5-(2-Fluorophenyl)-1-[6-(4-fluorophenyl)pyridin-3-yl]-1H-pyrazol-4-ylmethyl}methyl-(1-methylpiperidin-4-yl)amine] | 250 |
| Fc1ccc(-c2ccc(-n3ncc(CNc4cccnc4)c3-c3ccccc3F)cn2)cc1 [(144), {5-(2-Fluorophenyl)-1-[6-(4-fluorophenyl)pyridin-3-yl]-1H-pyrazol-4-ylmethyl}pyridin-3-ylamine] | 890 |
| NC(=O)C1CCCN1Cc1cnn(-c2ccc(-c3ccccc3F)nc2)c1-c1ccccc1F (stereo not drawn) [(145), 1-{5-(2-Fluorophenyl)-1-[6-(2-fluorophenyl)pyridin-3-yl]-1H-pyrazol-4-ylmethyl}pyrrolidine-2-carboxamide] | 220 |
